# In patent US10456365B2, “Methods and formulations for supporting and promoting bone health” (Primus Pharmaceuticals, Inc., priority 2016, dated 2019):
# Legend:
# Format in all cases: cell-based, mouse (C57BL/6)
# [1] = system: osteoblastic mineralization; assay: Mineralization in bone marrow culture
# Experimental: C57BL/6 cells were prepared as 1×10^6/ml per well in 12-well plates. Cells were cultured in either the presence or absence of DMEM with mineralization medium containing ascorbic acid (100 μg/ml) and 4 mM β-glycerophosphate in DMEM with 10% FBS and 1% penicillin-steptomycin. […] After culture, the cells were washed and stained. After elution with 10% cetylpyridinium chloride solution, the absorbance at 570 nm on a microtiter plate reader.
# [2] = system: differentiation of bone marrow cells to adipocytes; assay: Adipogenesis in bone marrow cell culture
# Experimental: C57BL/6 cells were prepared as 1×10^6/ml per well. These cells were cultured using 12-well plates in DMEM containing 10% FBS, 1% penicillin-steptomycin in the presence or absence of dexamethasone (1 μM/ml) and 3-isobutyl-q-methylxanthine (0.5 mM/ml) with either vehicle or β-Caryophyllene (0.1-100 μM). Medium was replaced containing insulin (10 μg/ml) without dexamethasone and 3-isobutyl-q-methylxanthine, with either the presence or absence of β-Caryophyllene (0.1-100 μM) for four days in CO2 incubator (37° C.). In other experiments, the cells were cultured without β-Caryophyllene for an additional four days. After culture, the adipocytes were stained and counted.
# Bone marrow cells (1×10^6 cells/well/ml in 12-well plates) were cultured for 3 days in DMEM containing 10% FBS, 1% penicillin-streptomycin (P/S; 10,000 U/L) in the presence or absence of the differentiation medium (DM) [dexamethasone (1 μM/ml of medium) and 3-isobutyl-1-methylxanthine (IBMX; 0.5 mM/ml of medium)] with either vehicle or β-caryophyllene (0.1-100 μM). […] After culture, the medium was removed, and adipocytes were stained with Oil Red O. Adipocytes were counted by light microscopy. For quantification, the dye was extracted with 0.2 ml of isopropanol for 1 minute, and the absorbance (490 nm) was read using a Spectra Count microplate photometer.
# [3] = system: osteoclastogenesis; assay: Osteoclastogenesis in bone marrow cell culture
# Experimental: C57BL/6 cells were prepared as 2×10^5/ml per well in 24-well plates. Cells were cultured in DMEM with 10% FBS and 1% penicillin-steptomycin in water-saturated atmosphere containing 5% CO2 and 95% air at 37° C. Cells were cultured with or without Tumor necrosis factor-α (5 ng/ml) for 3 days in the presence or absence of β-Caryophyllene (0.1-100 μM). Medium was replaced and cultures were maintained for an additional 4 days. In other experiments, the cells were cultured for 3 days and then placed in medium without β-Caryophyllene for an additional 4 days. Cells were stained with a marker enzyme of osteoclasts and washed with phosphate buffered sale solution and foxed with 10% neutralized formalin-phosphate for 10 minutes. The cells were stained with TRACP staining and incubated for 90 minutes. TRACP—positive cells containing three or more nuclei were counted as osteoclast-like cells.
compound,measurement,setting,value
C=C1CC/C=C(\C)CC[C@@H]2[C@@H]1CC2(C)C [β-Caryophyllene],osteoblastic mineralization,"[1]; 18 days, mineralization medium",stimulated osteoblastic mineralization
same,osteoblastic mineralization,"[1]; β-Caryophyllene for 7 days, then medium without it for additional 11 days",Stimulation was also seen
same,differentiation of bone marrow cells to adipocytes,"[2]; 0.1-100 μM, 7 days, differentiation medium with or without insulin (FIG. 1)",suppressed differentiation of from bone marrow cells to adipocytes
same,differentiation of bone marrow cells to adipocytes,[2]; C57BL/6 cells cultured for 7 days with or without β-Caryophyllene,suppressed differentiation of bone marrow cells to adipocytes
same,osteoclastogenesis,"[3]; 7 days, medium containing Tumor necrosis factor-α",suppressed osteoclastogenesis
same,osteoclastogenesis,"[3]; cultured in Tumor necrosis factor-α with β-Caryophyllene, then without β-Caryophyllene for additional 4 days",also exhibited suppression of osteoclastogenesis
